How the values were obtained:
Assay in all cases: Kinase selectivity, DiscoverX scanMAX Kinase assay panel (% control)
Assay type in all cases: binding
[1] = target: T1, kinases of the scanMAX Kinase assay panel (Homo sapiens, UniProt Q86Z02); conditions: HIPK1; 1 uM
T1 construct: purchased DiscoverX Co. (contract measurement) scanMAX Kinase assay panel
In short: (§1)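 Percent of control computed as (compound − positive control)/(negative control − positive control) × 100, DMSO defining 100% and positive control 0%. Each panel kinase exposed to 1 uM compound; values under 35% taken to mean the compound acts on that kinase.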

[2] = target: T2, kinases of the scanMAX Kinase assay panel (Homo sapiens, UniProt Q9BYT3); conditions: kinase STK33; 1 uM in DMSO
T2 construct: purchased DiscoverX Co. (contract measurement) scanMAX Kinase assay panel
In short: as §1

[3] = target: T3, kinases of the scanMAX Kinase assay panel (Homo sapiens, UniProt P29323); conditions: EPHB2; 1 uM
T3 construct: purchased DiscoverX Co. (contract measurement) scanMAX Kinase assay panel
T3 sequence (P29323 19-1055): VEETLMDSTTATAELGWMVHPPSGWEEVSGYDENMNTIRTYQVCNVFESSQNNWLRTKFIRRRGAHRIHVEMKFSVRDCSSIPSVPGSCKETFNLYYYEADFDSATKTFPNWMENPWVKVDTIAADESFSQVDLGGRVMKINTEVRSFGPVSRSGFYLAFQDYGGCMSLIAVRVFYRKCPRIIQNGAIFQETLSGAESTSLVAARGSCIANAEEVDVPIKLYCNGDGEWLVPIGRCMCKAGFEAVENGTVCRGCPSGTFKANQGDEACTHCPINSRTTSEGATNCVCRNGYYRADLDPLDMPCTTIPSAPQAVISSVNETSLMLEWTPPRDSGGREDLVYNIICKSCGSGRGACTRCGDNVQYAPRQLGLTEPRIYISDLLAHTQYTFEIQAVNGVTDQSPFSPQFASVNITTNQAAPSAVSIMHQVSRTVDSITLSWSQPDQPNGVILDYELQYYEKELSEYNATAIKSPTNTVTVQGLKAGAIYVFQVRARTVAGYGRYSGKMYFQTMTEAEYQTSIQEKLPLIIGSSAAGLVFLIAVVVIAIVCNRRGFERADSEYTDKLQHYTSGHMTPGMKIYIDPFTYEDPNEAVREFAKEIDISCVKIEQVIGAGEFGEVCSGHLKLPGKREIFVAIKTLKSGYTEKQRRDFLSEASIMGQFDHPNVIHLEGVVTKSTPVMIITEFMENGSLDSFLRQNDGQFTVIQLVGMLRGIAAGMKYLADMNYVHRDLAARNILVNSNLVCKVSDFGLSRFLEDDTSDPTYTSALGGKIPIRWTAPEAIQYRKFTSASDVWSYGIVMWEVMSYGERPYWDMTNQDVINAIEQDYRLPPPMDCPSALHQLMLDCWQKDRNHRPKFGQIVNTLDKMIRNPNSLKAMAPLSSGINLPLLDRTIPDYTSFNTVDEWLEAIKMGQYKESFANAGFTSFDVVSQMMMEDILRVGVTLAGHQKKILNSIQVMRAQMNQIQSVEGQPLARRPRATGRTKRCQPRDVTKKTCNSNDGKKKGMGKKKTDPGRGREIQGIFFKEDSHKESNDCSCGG
In short: as §1

[4] = target: T4, kinases of the scanMAX Kinase assay panel (Homo sapiens, UniProt Q9H2G2); conditions: kinase SLK; 1 uM in DMSO
T4 construct: purchased DiscoverX Co. (contract measurement) scanMAX Kinase assay panel
In short: as §1

[5] = target: T5, kinases of the scanMAX Kinase assay panel (Homo sapiens, UniProt Q9BZL6); conditions: PRKD2; 1 uM
T5 construct: purchased DiscoverX Co. (contract measurement) scanMAX Kinase assay panel
T5 sequence (Q9BZL6 1-878): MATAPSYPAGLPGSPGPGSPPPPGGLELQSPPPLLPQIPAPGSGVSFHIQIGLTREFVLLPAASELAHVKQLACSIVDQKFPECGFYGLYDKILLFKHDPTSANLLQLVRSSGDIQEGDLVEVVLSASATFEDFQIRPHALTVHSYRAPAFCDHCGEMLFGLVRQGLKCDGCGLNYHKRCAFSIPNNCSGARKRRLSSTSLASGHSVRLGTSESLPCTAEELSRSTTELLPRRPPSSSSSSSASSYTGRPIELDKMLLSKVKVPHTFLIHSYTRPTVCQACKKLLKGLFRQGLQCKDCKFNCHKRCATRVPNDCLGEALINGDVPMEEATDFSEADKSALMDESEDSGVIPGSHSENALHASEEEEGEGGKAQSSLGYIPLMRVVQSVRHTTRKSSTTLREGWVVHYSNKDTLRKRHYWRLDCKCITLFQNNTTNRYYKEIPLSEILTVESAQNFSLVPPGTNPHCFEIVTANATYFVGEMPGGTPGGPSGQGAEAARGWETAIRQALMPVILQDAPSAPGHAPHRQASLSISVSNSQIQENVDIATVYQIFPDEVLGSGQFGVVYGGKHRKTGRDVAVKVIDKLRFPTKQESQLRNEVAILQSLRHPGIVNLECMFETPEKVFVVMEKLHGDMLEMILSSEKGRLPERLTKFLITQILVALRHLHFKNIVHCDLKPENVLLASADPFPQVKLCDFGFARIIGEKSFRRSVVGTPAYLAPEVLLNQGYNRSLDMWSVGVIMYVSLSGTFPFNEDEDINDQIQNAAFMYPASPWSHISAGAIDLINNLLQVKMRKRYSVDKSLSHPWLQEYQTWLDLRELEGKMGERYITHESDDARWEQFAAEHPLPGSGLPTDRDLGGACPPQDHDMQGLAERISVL
In short: as §1

[6] = target: T6, kinases of the scanMAX Kinase assay panel (Homo sapiens, UniProt P10721); conditions: 1 uM
T6 construct: purchased DiscoverX Co. (contract measurement) scanMAX Kinase assay panel
In short: as §1

T6 sequence (P10721 26-976): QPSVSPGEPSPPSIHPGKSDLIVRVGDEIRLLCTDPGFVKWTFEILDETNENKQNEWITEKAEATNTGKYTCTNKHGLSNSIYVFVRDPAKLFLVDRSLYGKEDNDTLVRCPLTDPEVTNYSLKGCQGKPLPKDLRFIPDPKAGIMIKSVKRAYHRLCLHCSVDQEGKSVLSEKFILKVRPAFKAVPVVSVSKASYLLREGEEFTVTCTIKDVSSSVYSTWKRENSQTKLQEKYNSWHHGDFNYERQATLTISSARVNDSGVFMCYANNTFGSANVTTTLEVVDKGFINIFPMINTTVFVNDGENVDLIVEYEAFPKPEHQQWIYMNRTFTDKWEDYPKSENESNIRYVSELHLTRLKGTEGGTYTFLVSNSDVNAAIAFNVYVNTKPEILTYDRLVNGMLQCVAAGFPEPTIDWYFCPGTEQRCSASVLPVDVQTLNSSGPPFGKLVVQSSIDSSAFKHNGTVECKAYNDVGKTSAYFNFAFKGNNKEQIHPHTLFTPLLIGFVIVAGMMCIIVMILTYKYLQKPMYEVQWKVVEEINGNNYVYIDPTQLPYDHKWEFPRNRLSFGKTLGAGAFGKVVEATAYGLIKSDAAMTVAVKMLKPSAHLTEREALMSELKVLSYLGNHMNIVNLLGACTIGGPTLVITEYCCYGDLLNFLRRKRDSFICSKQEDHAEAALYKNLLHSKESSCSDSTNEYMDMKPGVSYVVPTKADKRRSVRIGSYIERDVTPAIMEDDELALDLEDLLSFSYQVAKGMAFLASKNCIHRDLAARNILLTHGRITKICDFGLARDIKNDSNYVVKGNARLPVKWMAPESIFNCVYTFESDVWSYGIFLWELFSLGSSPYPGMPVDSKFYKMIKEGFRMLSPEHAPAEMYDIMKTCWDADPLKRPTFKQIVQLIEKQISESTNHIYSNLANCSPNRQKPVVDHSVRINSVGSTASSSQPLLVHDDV
T1 sequence (Q86Z02 whole entry): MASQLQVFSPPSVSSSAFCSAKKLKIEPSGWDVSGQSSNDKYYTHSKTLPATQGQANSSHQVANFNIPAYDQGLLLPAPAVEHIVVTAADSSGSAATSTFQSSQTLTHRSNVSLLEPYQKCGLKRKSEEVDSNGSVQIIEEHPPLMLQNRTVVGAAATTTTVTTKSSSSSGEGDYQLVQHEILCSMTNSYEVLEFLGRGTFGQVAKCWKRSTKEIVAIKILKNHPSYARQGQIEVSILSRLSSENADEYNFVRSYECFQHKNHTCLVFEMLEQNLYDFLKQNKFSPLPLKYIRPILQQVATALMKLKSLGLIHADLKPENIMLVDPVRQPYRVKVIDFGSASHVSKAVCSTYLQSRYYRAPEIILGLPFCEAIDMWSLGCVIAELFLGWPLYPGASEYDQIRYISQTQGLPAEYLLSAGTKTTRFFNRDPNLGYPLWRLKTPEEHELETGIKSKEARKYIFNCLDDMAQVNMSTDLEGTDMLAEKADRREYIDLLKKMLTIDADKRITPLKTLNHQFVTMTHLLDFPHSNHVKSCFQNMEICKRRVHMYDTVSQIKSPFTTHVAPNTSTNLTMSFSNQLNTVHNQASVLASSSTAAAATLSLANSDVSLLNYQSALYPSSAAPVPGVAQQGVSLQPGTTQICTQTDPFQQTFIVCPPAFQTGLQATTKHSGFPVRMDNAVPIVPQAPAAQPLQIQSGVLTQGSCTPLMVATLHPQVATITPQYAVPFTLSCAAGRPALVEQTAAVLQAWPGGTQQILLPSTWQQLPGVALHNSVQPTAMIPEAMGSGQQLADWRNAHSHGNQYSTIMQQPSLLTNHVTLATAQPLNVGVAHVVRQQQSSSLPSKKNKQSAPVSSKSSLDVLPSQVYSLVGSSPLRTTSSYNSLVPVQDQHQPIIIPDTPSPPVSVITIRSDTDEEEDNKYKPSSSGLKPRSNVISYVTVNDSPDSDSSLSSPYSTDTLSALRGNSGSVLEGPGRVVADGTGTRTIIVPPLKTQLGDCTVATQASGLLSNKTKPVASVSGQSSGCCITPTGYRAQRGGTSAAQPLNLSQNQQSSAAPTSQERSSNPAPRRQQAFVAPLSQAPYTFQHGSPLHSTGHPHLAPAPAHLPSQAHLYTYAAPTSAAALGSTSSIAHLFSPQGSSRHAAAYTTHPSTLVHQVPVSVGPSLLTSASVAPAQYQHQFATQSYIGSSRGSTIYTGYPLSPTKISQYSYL
T2 sequence (Q9BYT3 whole entry): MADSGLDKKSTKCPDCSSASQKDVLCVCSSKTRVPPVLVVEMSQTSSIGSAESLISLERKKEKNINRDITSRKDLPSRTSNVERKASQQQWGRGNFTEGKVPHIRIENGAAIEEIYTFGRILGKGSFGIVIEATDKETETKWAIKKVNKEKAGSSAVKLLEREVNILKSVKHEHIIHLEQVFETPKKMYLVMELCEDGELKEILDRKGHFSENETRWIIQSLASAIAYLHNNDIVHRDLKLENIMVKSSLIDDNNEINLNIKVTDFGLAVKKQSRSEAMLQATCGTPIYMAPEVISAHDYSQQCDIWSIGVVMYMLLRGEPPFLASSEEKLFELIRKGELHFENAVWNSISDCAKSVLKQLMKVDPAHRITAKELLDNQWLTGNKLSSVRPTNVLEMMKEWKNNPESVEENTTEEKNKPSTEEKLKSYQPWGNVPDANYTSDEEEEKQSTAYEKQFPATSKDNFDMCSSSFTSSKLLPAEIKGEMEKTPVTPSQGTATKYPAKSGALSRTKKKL
T4 sequence (Q9H2G2 whole entry): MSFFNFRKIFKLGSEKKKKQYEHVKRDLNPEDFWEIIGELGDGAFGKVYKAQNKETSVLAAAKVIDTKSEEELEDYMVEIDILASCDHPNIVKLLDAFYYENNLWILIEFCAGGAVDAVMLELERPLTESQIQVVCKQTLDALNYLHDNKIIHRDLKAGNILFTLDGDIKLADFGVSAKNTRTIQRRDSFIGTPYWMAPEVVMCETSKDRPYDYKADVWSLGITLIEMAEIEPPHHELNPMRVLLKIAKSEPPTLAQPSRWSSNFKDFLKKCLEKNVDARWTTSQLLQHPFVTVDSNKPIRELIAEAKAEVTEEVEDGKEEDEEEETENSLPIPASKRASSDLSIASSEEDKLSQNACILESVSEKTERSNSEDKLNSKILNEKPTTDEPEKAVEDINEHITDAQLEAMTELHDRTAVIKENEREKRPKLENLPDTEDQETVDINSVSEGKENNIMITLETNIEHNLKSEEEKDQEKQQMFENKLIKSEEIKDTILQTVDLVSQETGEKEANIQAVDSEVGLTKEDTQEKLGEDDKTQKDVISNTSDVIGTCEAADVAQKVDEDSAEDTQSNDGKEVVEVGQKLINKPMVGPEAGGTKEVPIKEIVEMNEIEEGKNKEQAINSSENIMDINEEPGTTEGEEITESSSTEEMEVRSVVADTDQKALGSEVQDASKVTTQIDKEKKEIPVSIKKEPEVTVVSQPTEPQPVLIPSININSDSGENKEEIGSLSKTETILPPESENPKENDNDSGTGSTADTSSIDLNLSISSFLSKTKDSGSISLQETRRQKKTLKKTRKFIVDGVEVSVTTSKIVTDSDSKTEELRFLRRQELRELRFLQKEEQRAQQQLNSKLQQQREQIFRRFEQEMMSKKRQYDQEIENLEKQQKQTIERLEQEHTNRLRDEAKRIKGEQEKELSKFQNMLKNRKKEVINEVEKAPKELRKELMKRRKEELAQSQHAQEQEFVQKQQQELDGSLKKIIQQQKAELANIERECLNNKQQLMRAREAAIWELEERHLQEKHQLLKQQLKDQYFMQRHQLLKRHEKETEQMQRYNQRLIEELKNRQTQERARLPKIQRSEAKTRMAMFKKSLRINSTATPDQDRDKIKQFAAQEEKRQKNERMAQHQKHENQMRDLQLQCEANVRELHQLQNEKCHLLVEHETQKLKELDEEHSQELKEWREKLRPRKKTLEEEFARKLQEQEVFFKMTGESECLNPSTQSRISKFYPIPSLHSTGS

CNc1nc(Nc2ccc(C(=O)N3CCOCC3)cc2OC)nc2[nH]cc(C#N)c12 [Example 1, 2-((2-methoxy-4-(morpholine-4-carbonyl)phenyl)amino)-4-(methylamino)-7H-pyrrolo[2,3-d]pyrimidine-5-carbonitrile]
remaining binding at 1 µM [1]: 61%
remaining binding at 1 µM [2]: 18%
remaining binding at 1 µM [3]: 99%
remaining binding at 1 µM [4]: 100%
remaining binding at 1 µM [5]: 28%
remaining binding at 1 µM ([6]; KIT-autoinhibited): 59%
remaining binding at 1 µM ([6]; KIT): 48%

CC1(Nc2nc(Nc3cnn([C@H]4CCN(C5COC5)C[C@@H]4F)c3Cl)nc3[nH]cc(C#N)c23)CC1 [Example 52, 2-((5-chloro-1-((3S,4S)-3-fluoro-1-(oxetane-3-yl)piperidine-4-yl)-1H-pyrazole-4-yl)amino)((1-methylcyclopropyl)amino)-7H-pyrrolo[2,3-d]pyrimidine-5-carbonitrile]
remaining binding at 1 µM [1]: 18%
remaining binding at 1 µM [2]: 4%
remaining binding at 1 µM [3]: 70%
remaining binding at 1 µM [4]: 13%
remaining binding at 1 µM [5]: 9.1%
remaining binding at 1 µM ([6]; KIT-autoinhibited): 0.1%
remaining binding at 1 µM ([6]; KIT): 0.15%

CCNc1nc(Nc2ccc(C(=O)N3CCC(N4CCOCC4)CC3)cc2OC)nc2[nH]cc(C(F)(F)F)c12 [Example 104, (4-((4-(ethylamino)-5-(trifluoromethyl)-7H-pyrrolo[2,3-d]pyrimidine-2-yl)amino)-3-methoxyphenyl)(4-morpholinopiperidine-1-yl)methanone]
remaining binding at 1 µM [1]: 13%
remaining binding at 1 µM [2]: 13%
remaining binding at 1 µM [3]: 91%
remaining binding at 1 µM [4]: 97%
remaining binding at 1 µM [5]: 16%
remaining binding at 1 µM ([6]; KIT-autoinhibited): 74%
remaining binding at 1 µM ([6]; KIT): 56%

From patent US11208412B2 (DAEGU-GYEONGBUK MEDICAL INNOVATION FOUNDATION, priority 2017, dated 2021)
